Like-named read-outs stand apart in the source and are kept apart here.
Key:
[1] = tested on: advanced or metastatic solid tumors, including lymphoma; experiment: Phase I/II study of azacitidine with nanoparticle albumin bound paclitaxel; type: in vivo, human; details: azacitidine sc days 1-5, then paclitaxel 100 mg/m^2 days 8, 15, 22 of 28-day cycle
Method: Patients with evaluable advanced or metastatic solid tumors, including lymphoma, adequate organ function, PS 0-2, and unlimited prior cytotoxic chemotherapies, including taxanes, were eligible. Cohorts of 3-6 patients were enrolled and treated.
Escalating doses of azacitidine (75-100 mg/m^2) were administered to patients subcutaneously on days 1-5, followed by a fixed dose of paclitaxel ([…]) on days 8, 15, and 22 of a 28-day cycle, for a total of 6 cycles. Serum and/or tissue samples, where appropriate, were collected for correlative studies.
Patients were initially permitted to have an unlimited number of prior chemotherapies. […] All affected patients had 4 or more prior cytotoxic regimens. […] Cohort 3 was treated at the next dose level (azacitidine 100 mg/m^2). […] Therefore, the maximum tolerated dose (MTD) of azacitidine in this regimen is 75 mg/m^2. […] To date, 16 patients have enrolled in the phase I part. Two patients were removed before completing cycle 1 because of disease progression. One patient was removed after cycle 4 for noncompliance.

SPARC [2] = experiment: SPARC expression in NSCLC xenografts in vivo; parameters: species or system SCID mice
Method: Western blot analysis was carried out using standard methods. Polyclonal antihuman SPARC antibody was purchased from R&D System (Minneapolis, Minn.). NSCLC cell lines A549, H460, and H157 were treated with 5 μM decitabine for 3 days in vitro and then harvested for RT-PCR and Western blot analysis. PD NSCLC xenografts and H460 xenografts treated with or without decitabine at 1.5 mg/kg/d. Xenografts were harvested for SPARC expression analysis. GAPDH were used as the endogenous control. Xenograft lysates were prepared and subjected to immunoblot analysis using 50 μg of cellular protein as described previously (Yu, C. et al. Blood 2003 102:3765-3774). The levels of β-actin (Sigma) were measured as control for equal loading. Immunoblots were developed with enhanced chemiluminescence (Amersham Bioscience, Golden Valley, Minn.).
(§1) To establish a maximally tolerated dose to be used in experiments involving pretreatment with decitabine, groups of mice implanted with H460 cell lines were tested at four dose levels of decitabine, i.e., 0.75, 1.5, 2, and 4 mg/kg, administered intraperitoneally as a single dose and monitored for viability (weight loss and death). Two mice from each group were killed 48 hours after completing decitabine treatment alone and tumor xenografts harvested to affirm SPARC-expression status. […]

[3] = cited from earlier work
SPARC [4] = experiment: SPARC promoter methylation (MSP) and SPARC expression (RT-PCR, Western blot) in NSCLC cell lines in vitro; type: cell-based, human; details: 3 days in vitro
Method: Total RNA was extracted from the samples with Trizol reagent (Invitrogen; Carlsbad, Calif.), and first-strand complementary DNA was generated using SuperScript III First-Strand Synthesis System (Invitrogen). The forward polymerase chain reaction (PCR) amplification primer of SPARC was 5′-[…]-3′ (Ex8-S, SEQ ID NO:1), and the reverse primer was 5-[…]-3′ (Ex9-AS, SEQ ID NO:2). Semiquantitative PCR was carried out for 4 minutes at 95° C. for initial denaturation, followed by 33 cycles of 94° C. for 25 seconds, 56° C. for 25 seconds, and 68° C. for 40 seconds. Glyceraldehyde-3-phosphate dehydrogenase (GAPDH) was used as endogenous control. Quantitative real-time (RT) PCR was done with SYBR GreenER qPCR superMix for ABI PRISM (Invitrogen) using ABI 7300 RT PCR system (Invitrogen), and GAPDH was used as a housekeeping gene for purpose of normalization.
The objective of this study was to determine if demethylation of the promoter region of the SPARC gene results in reexpression of the SPARC gene in cancer cells. DNA methylation in gene promoter regions is a mechanism to silence gene expression. The loss of SPARC expression in a large proportion of NSCLC specimens may be due to the methylation in the promoter region of SPARC gene was investigated. Representative samples of NSCLC cell lines or PD xenografts were treated with decitabine (5 μM) in vitro for three days and promoter methylation was analyzed.
Genomic DNA was obtained from cell lines and primary tumors by using DNeasy Blood and Tissue Kit (Qiagen; Valencia, Calif.) according to the manufacturer's handbook. The DNA methylation pattern in the CpG island of SPARC was determined using the method of methylation-specific PCR (MSP) and with the EZ DNA Methylation Kit (Zymo research, Irvine, Calif.). Primers for the methylated reaction were Sparc-unmsp-F: 5′-[…]-3′ (sense, SEQ ID NO:3), Sparcunmsp-R: 5′-[…]-3′ (antisense, SEQ ID NO:4), sparc-msp-F: 5′-[…]-3′ (sense, SEQ ID NO:5), and sparc-msp-R: 5′-[…]-3′ (antisense, SEQ ID NO:6). PCR amplification was carried out with bisulfite-treated DNA as a template using specific primer sequences for the methylated and unmethylated status of the gene. Water blanks were included with each assay. PCR amplification was carried out for 12 minutes at 94° C. for initial denaturation, followed by 40 cycles of 94° C. for 30 seconds, 58° C. for 25 seconds, and 68° C. for 45 seconds. Results were confirmed by repeating the bisulfate treatment and MSP for all samples. PCR products were visualized on 1.5% agarose gels.
Western blot analysis was carried out using standard methods. Polyclonal antihuman SPARC antibody was purchased from R&D System (Minneapolis, Minn.). […] The levels of β-actin (Sigma) were measured as control for equal loading. […]

[5] = tested on: mice implanted with H460 cell lines; experiment: Tolerable dose of decitabine, viability (weight loss and death); type: in vivo, SCID mice
Method: To establish a maximally tolerated dose to be used in experiments involving pretreatment with decitabine, groups of mice implanted with H460 cell lines were tested at four dose levels of decitabine, i.e., 0.75, 1.5, 2, and 4 mg/kg, administered intraperitoneally as a single dose and monitored for viability (weight loss and death). Two mice from each group were killed 48 hours after completing decitabine treatment alone and tumor xenografts harvested to affirm SPARC-expression status. For combination drug treatment, Abraxane® was administered by tail vein injection at 30 mg/kg/d for 5 consecutive days. Taxol and decitabine were used at 13.4 mg/kg/d and 1.5 mg/kg/d, respectively. […] At the end of drug treatment, the mice were killed. Xenografts were harvested and assayed to determine SPARC status.
The study evaluates tumor SPARC expression upregulation on treatment with decitabine in vitro and in vivo. To establish a tolerable dose to be used in experiments in vivo, groups of mice implanted with H460 cell lines were tested at four dose levels of decitabine, i.e., 0.75, 1.5, 2, and 4 mg/kg, respectively. This is based on prior publication showing that decitabine administered twice daily intraperitoneally for 5 days was toxic at 10 mg/kg/dose, and 2 mg/kg dose was associated with mild toxicity (Guo, Z S et al Cancer Res 2006 22:1105-1113). […] Nevertheless, decitabine at 2 and 4 mg/kg was toxic with 6/8 (75%) mice dead between 8 and 12 days after only one decitabine dose (without Abraxane® treatment). Decitabine dose at 1.5 mg/kg was subsequently used in the combination experiments.

NSCLC_16465 xenograft = experiment: Tumor xenograft growth in vivo, SPARC-negative PD NSCLC xenograft; parameters: species or system SCID mice; details: taxol 13.4 mg/kg
Method: (§2) Experimental studies were carried out using 6- to 8-week-old CB.17 severe combined immunodeficiency (SCID)/SCID with an average body weight ˜25 g. H460 (5×10^6 cells) or PD NSCLC xenografts (mouse-to-mouse passage), which were cut into small fragments (2-3 mm in size), were implanted subcutaneously at the flank region. Tumor growth was monitored by periodic visual inspection at the site of implantation, and the dimensions of the xenografts were measured every 2 to 3 days. Tumor volume was calculated using the following formula: V=LD×(SD)^2/2, where V is the tumor volume, LD is the longest tumor diameter, and SD is the shortest tumor diameter.
as §1, with “death).” for “death). Two mice from each group were killed 48 hours after completing decitabine treatment alone and tumor xenografts harvested to affirm SPARC-expression status.”
(§3) To describe the observed variability in the in vivo data and test for differences between groups, a multivariate linear model was fit to each dependent variable (tumor volume). […] Difference was considered statistically significant when the calculated p value was less than 0.05.

NSCLC_16591 xenograft = experiment: as above; parameters: species or system SCID mice; details: Abraxane 30 mg/kg, taxol 13.4 mg/kg (equitoxic)
Method: as §2
as §1, with “death).” for “death). Two mice from each group were killed 48 hours after completing decitabine treatment alone and tumor xenografts harvested to affirm SPARC-expression status.”
as §3

NSCLC_15946 xenograft = experiment: Tumor xenograft growth in vivo, SPARC-intermediate PD NSCLC xenograft; parameters: species or system SCID mice; details: Abraxane 30 mg/kg, taxol 13.4 mg/kg (equitoxic)
Method: as §2
as §1, with “death).” for “death). Two mice from each group were killed 48 hours after completing decitabine treatment alone and tumor xenografts harvested to affirm SPARC-expression status.”
as §3

NSCLC_16372 xenograft = experiment: Tumor xenograft growth in vivo, SPARC-positive PD NSCLC xenograft; parameters: species or system SCID mice; details: Abraxane 30 mg/kg, taxol 13.4 mg/kg (equitoxic)
Method: as §2
as §1, with “death).” for “death). Two mice from each group were killed 48 hours after completing decitabine treatment alone and tumor xenografts harvested to affirm SPARC-expression status.”
as §3

[6] = decitabine at 2 and 4 mg/kg ip, without Abraxane treatment

In the case of `Nc1ncn([C@@H]2O[C@H](CO)[C@@H](O)[C@H]2O)c(=O)n1` [azacitidine, 5-azacytidine], the “maximum tolerated dose (MTD) of azacitidine in this regimen” value [1] is reported as 75 mg/m^2.
For `Nc1ncn([C@H]2C[C@H](O)[C@@H](CO)O2)c(=O)n1` [decitabine, 5-aza-2′-deoxycytidine], the “SPARC expression in xenografts” value (SPARC [2]; NSCLC_16325, NSCLC_16384 and H460 xenografts, decitabine 1.5 mg/kg) is given as “up-regulated”, the “reexpression of SPARC in H460 xenografts” value (SPARC [2]; decitabine 0.75, 1.5, 2 and 4 mg/kg ip) is given as “dose-dependent reexpression” and the toxicity ([3]; 2 mg/kg dose twice daily intraperitoneally for 5 days) is given as “mild toxicity”. For the same molecule, the toxicity ([3]; 10 mg/kg/dose twice daily intraperitoneally for 5 days) was “toxic”, the “SPARC expression in NSCLC cell lines” value (SPARC [4]; A549, H460 and H157, decitabine 5 μM) was “up-regulated” and the SPARC expression (SPARC [4]; H460 cells, decitabine 5 μM) was “up-regulated”. The “SPARC protein (Western blot)” value (SPARC [4]; H460 cells, decitabine 5 μM) was “upregulation”, the “unmethylated promoter of SPARC (methylation-specific PCR)” value (SPARC [4]; H460 cells, decitabine 5 μM) was “increase” and the toxicity ([5]; decitabine at 2 and 4 mg/kg ip single dose) was “toxic”. The “mice dead between 8 and 12 days after only one decitabine dose” value [5, 6] was 75% and the “mice dead between 8 and 12 days after only one decitabine dose (number/total)” value [5, 6] was 6/8.
In the case of `CC(=O)O[C@H]1C(=O)[C@@]2(C)[C@H]([C@H](OC(=O)c3ccccc3)[C@]3(O)C[C@H](OC(=O)[C@H](O)[C@@H](NC(=O)c4ccccc4)c4ccccc4)C(C)=C1C3(C)C)[C@]1(OC(C)=O)CO[C@@H]1C[C@@H]2O` [taxol], the “tumor growth compared with vehicle control” value (NSCLC_16465 xenograft) is reported as “no difference compared with vehicle control”, the “effect on tumor growth compared with vehicle control” value (NSCLC_16591 xenograft) is reported as “Neither administration of taxol nor administration of Abraxane® showed any effect on tumor growth” and the “tumor growth compared with vehicle control” value (NSCLC_15946 xenograft) is reported as “significantly inhibited”. For the same molecule, the “xenograft growth compared with vehicle control” value (NSCLC_16372 xenograft) was “suppressed”.
